Laboratory results: patent publication EP4520333A1, “SYK INHIBITORS FOR USE IN THE TREATMENT OF IMMUNE CHECKPOINT INHIBITION INDUCED ADVERSE EVENTS” (Albert-Ludwigs-Universität Freiburg, priority 2023, dated 2025)

What was measured:
B-cell lymphomas = settings: in vitro; cited from earlier work
mice [1] = assay: Novel object recognition test; assay type: in vivo
Source text: (§1) The invention is further described by the following figures. These are not intended to limit the scope of the invention but represent preferred embodiments of aspects of the invention provided for greater illustration of the invention described herein. • Figure 1: Microglia show signs of activation upon anti-PD-1 treatment in the absence of tumor. (A-C) Histology of brain samples immunostained for Iba-1^+ cells from the cortex of mice treated with anti-PD-1 or isotype control on day 22 after treatment. (A) Representative images from each group are shown. Scale bars, 50µm. The scatter plots show the number of Iba-1^+ cells (per mm^2) in cortex (B) and hippocampus (C). The results (mean ± s.e.m.) were combined. The experiment was performed three times. The P-values were calculated using the unpaired student's t-test. (D) Representative images showing Imaris (Bitplane)-based 3D-reconstruction of Iba-1^+ microglia from the cortex of mice treated with anti-PD-1 or isotype control as indicated. Scale bar: 10µm. (E-H) Scatter plots showing Imaris-based automated quantification of microglial morphology from microglia the cortex of mice treated with anti-PD-1 or isotype control on day 22 after treatment. […] The P-values were calculated using the unpaired student's t-test. • Figure 2: Anti-PD-1 treatment causes neurocognitive deficits and increased CSF-1R and MHC-II expression on microglia. (A-B) Representative immunofluorescence images and scatter plot depicting the quantification of the ratio of extravascular versus intravascular FITC-dextran indicative of BBB leakage via extravasation of FITC-dextran in the cortex of either untreated, isotype-treated, or anti-PD-1-treated mice. […] (C-D) The scatter plot (C) and representative histogram (D) show the quantification (fold change of MFI) of CSF-1R (CD115) on microglia (CD45^lo CD11b^+) isolated from the CNS of mice treated with anti-PD-1 or isotype control on day 22. […] The P-values were calculated using the student's t-test (B, C, E, K-M) and paired samples Wilcoxon test (G, I). […] The P-values were calculated using the unpaired student's t-test. […]

mice [2] = assay: Elevated plus maze test; assay type: in vivo; settings: melanoma bearing mice, anti-PD-1 plus Syk inhibitor vs anti-PD-1 plus vehicle (Fig. 7L day 17; Fig. 33A)
Source text: (§2) The invention is further described by the following figures. These are not intended to limit the scope of the invention but represent preferred embodiments of aspects of the invention provided for greater illustration of the invention described herein. • Figure 1: Microglia show signs of activation upon anti-PD-1 treatment in the absence of tumor. (A-C) Histology of brain samples immunostained for Iba-1^+ cells from the cortex of mice treated with anti-PD-1 or isotype control on day 22 after treatment. (A) Representative images from each group are shown. Scale bars, 50µm. The scatter plots show the number of Iba-1^+ cells (per mm^2) in cortex (B) and hippocampus (C). The results (mean ± s.e.m.) were combined. […] The P-values were calculated using the unpaired student's t-test. […] (E-H) Scatter plots showing Imaris-based automated quantification of microglial morphology from microglia the cortex of mice treated with anti-PD-1 or isotype control on day 22 after treatment. […] The P-values were calculated using the unpaired student's t-test. • Figure 2: Anti-PD-1 treatment causes neurocognitive deficits and increased CSF-1R and MHC-II expression on microglia. […] (C-D) The scatter plot (C) and representative histogram (D) show the quantification (fold change of MFI) of CSF-1R (CD115) on microglia (CD45^lo CD11b^+) isolated from the CNS of mice treated with anti-PD-1 or isotype control on day 22. […]

mice [3] = assay: Grip strength test; assay type: in vivo; settings: melanoma bearing mice
Source text: as §2

[4] = tested on: cells isolated from BM and spleen; assay: Flow cytometry of peripheral immune cells from BM and spleen of melanoma-bearing mice; assay type: in vivo
Source text: as §1

[5] = tested on: microglia (CD45lo CD11b+); assay: Flow cytometry of microglia / CD11b+ cells isolated from the CNS of mice; assay type: in vivo; settings: melanoma bearing mice on CSF-1R inhibitor diet vs control diet (Fig. 6, Fig. 14)
Source text: as §2

lymphoma cells = settings: reference (45); cited from earlier work

## CCS(=O)(=O)N1CCN(c2ccc(Nc3ncc(C(N)=O)c(NC4CC4)n3)cc2)CC1 [Cerdulatinib]
B-cell lymphomas
  activity against B-cell lymphomas: in vitro activity

## COc1cc(Nc2ncc(F)c(Nc3ccc4c(n3)N(COP(=O)(O)O)C(=O)C(C)(C)O4)n2)cc(OC)c1OC [Fostamatinib]
Mice [1]; melanoma bearing mice, anti-PD-1 plus Syk inhibitor vs anti-PD-1 plus vehicle (Fig. 7K day 17; Fig. 33B)
  time spent exploring a novel object with respect to the total time (memory): reproducible
Mice [2]
  entries into open arms (exploratory): reproducible
Mice [3]; anti-PD-1 plus Syk inhibitor or vehicle (Fig. 7M day 17; Fig. 33C)
  grip strength normalized to body weight: reproducible
[4]; anti-PD-1/isotype and second Syk inhibitor/vehicle (Fig. 33D-G)
  peripheral myeloid compartment (CD45+, F4/80+ cells in BM and spleen): No changes
[4]; anti-PD-1/isotype and second Syk inhibitor/vehicle (Fig. 33H and I)
  CD3+ T cells in the BM and spleen: expansion

## COc1ncc(F)cc1CNc1ccc(Cc2c[nH]c3ncc(C)cc23)c(F)n1 [PLX5622]
[5]
  CSF-1R positive cells (CD11b+ and CD11b+CD45lo cells in the CNS): depletion
Mice [1]; melanoma bearing mice treated with anti-PD-1 plus depleting agent or its control, day 23 (Fig. 6B, F, J, M, O)
  neurocognitive function in novel object recognition test, anti-PD-1 treated mice: improved
Mice [1]; melanoma bearing mice treated with isotype antibody plus depleting agent or its control, day 23 (Fig. 6A, E)
  neurocognitive function in novel object recognition test, isotype treated mice: did not develop neurocognitive deficits
Mice [3]; isotype or anti-PD-1 plus depleting agent or its control, day 23 (Fig. 6C, D, G, H)
  grip strength normalized to body weight: intact
[4]; CSF-1R inhibitor diet day -7 to day 23
  frequencies of CD45, CD11b, Ly6C and CD11c populations in the BM and spleen: did not alter

## Cn1cc(-c2nc(N[C@@H]3CCCC[C@@H]3N)c(F)c3c2C(=O)NC3)cn1 [TAK-659]
Lymphoma cells
  pro-survival, proliferative, chemoresistant, and activation effects promoted by the microenvironment: impair
